Measurements: patent publication US12274781B2, “Use of enzyme-modified isoquercitrin” (SAN-EI GEN F.F.I., INC., priority 2015, dated 2025)
Entries after “also recorded” stand apart in the source; their conditions may differ.

Tests used:
[1] = test system: saliva secretion in healthy persons; test: Salivation-promoting effect of aqueous solutions, non-thickened or thickened with xanthan gum (Experimental Examples 1 and 2); type: in vivo, human; conditions: for Amount of salivation (standardized with water): average of 3 panelists, water = 1; for Salivation-promoting (saliva secretion-increasing) effect, in words: Experimental Example 1, aqueous solutions, equimolar in terms of rutin, humans; for Enhancement of the salivation-promoting effect by incorporating a thickening polysaccharide (thickening), in words: Experimental Example 2, 150 μM, 0.1 mass % xanthan gum
Protocol: Using 3 healthy persons (males, average age: 31.3 years old) as panelists, the salivation-promoting effect of the test samples prepared above was evaluated. Persons whose circadian variation of saliva secretion is relatively similar were selected as the panelists from candidates.
The evaluation was performed using 15 g of each test sample per test according to the following method. As a blank, a test was performed in the same manner using 15 g of water in place of the test samples.
(i) After 15 g of each sample is placed in the mouth and retained for 5 seconds, the sample is swallowed at one time.
(ii) After 5 seconds, absorbent cotton (37.5 mm×37.5 mm×4 mm) is placed under (the back of) the tongue, and retained for 2 minutes.
(iii) The absorbent cotton is removed from under the tongue, and the weight (g) of the cotton is measured. This weight is compared with the weight of the absorbent cotton before being placed in the mouth to calculate the difference in weight.
The above test was performed using the same test sample twice per panelist, and the average was calculated. Based on the average of each panelist, the average and standard deviation of all of the panelists were calculated.
Table 2 and FIG. 1 show the evaluation results (the average of 3 panelists). The results are shown as numerical values (relative values) standardized by setting the saliva secretion amount obtained by using the blank (water) as 1.
Test substances (enzymatically modified isoquercitrin preparation, αG rutin, and quercetin) were dissolved in drinking water, and adjusted so that the rutin content (molarity) of the structure of each compound was 150 μM (see Table 1). Further, xanthan gum was added to the aqueous solutions, so that the content thereof was 0.1 mass %, thus thickening the solutions. For comparison, xanthan gum-free aqueous solutions (an aqueous enzymatically modified isoquercitrin solution, an aqueous αG rutin solution, an aqueous quercetin solution) at a concentration of 150 μM in terms of rutin were prepared in the same manner as in Experimental Example 1.
The salivation-promoting effect of each test sample prepared above was evaluated in the same manner as in Experimental Example 1 (the panelists were also the same). Table 3 and FIG. 2 show the evaluation results (the average of 3 panelists).

saliva secretion in mice = conditions: cited from earlier work
[2] = 75 μM aqueous solution (in terms of rutin or molarity of quercetin), 15 g
[3] = 150 μM aqueous solution (in terms of rutin or molarity of quercetin), 15 g
[4] = 750 μM aqueous solution (in terms of rutin or molarity of quercetin), 15 g
[5] = 3750 μM aqueous solution (in terms of rutin or molarity of quercetin), 15 g
[6] = Non-thickened: 150 μM, xanthan gum-free, viscosity 1 mPa·s
[7] = Thickened: 150 μM with 0.1 mass % xanthan gum, viscosity 20 mPa·s

Row | Compound | Amount of salivation (standardized with water) [1, 2] | Amount of salivation (standardized with water) [1, 3] | Amount of salivation (standardized with water) [1, 4] | Amount of salivation (standardized with water) [1, 5] | Salivation-promoting (saliva secretion-increasing) effect, in words [1] | Enhancement of the salivation-promoting effect by incorporating a thickening polysaccharide (thickening), in words [1] | Amount of salivation (standardized with water) [1, 6] | Amount of salivation (standardized with water) [1, 7] | Effect on hyposalivation (saliva secretion in mice; model mice having disturbance of salivary secretion created by radiation exposure) | Effect on saliva secretion (saliva secretion in mice; normal mice) | Salivation-promoting (saliva secretion-increasing) effect, in words ([1]; listed as α-glucosylrutin)
1 | O=c1c(O)c(-c2ccc(O)c(O)c2)oc2cc(O)cc(O)c12 [quercetin] | 0.989 | 0.826 | 1.032 | 1.132 | not observed; also recorded: no salivation-promoting effect | not observed | 0.826 | 0.868 | reduces hyposalivation | enhances saliva secretion | –
2 | α-glucosylrutin [αG rutin] | 0.910 | 0.841 | 0.872 | 0.932 | not observed | not observed | 0.841 | 0.719 | – | – | no salivation-promoting effect
